US6623933B1 (priority 1999, dated 2003)
pEC50: −log10 of the molar value. Entries after “also recorded” stand apart in the source; their conditions may differ. Counter-ions that a name gives are not always drawn. Like-named read-outs stand apart in the source and are kept apart here.

Columns and labels:
[1] = target: T1, NR1100+NR2A NMDA receptor (Rattus norvegicus, UniProt P35439+Q00959); assay: NMDA-induced currents, Xenopus oocytes, Example 1; assay type: cell-based; conditions: for effect on NMDA induced current: NR1100+NR2A, sulfate
T1 construct: expressed in transfected cells; host or cells: Xenopus oocytes co-injected with NR1100 and NR2A cRNA
T1 sequence (Q00959 23-1464, other chains not shown): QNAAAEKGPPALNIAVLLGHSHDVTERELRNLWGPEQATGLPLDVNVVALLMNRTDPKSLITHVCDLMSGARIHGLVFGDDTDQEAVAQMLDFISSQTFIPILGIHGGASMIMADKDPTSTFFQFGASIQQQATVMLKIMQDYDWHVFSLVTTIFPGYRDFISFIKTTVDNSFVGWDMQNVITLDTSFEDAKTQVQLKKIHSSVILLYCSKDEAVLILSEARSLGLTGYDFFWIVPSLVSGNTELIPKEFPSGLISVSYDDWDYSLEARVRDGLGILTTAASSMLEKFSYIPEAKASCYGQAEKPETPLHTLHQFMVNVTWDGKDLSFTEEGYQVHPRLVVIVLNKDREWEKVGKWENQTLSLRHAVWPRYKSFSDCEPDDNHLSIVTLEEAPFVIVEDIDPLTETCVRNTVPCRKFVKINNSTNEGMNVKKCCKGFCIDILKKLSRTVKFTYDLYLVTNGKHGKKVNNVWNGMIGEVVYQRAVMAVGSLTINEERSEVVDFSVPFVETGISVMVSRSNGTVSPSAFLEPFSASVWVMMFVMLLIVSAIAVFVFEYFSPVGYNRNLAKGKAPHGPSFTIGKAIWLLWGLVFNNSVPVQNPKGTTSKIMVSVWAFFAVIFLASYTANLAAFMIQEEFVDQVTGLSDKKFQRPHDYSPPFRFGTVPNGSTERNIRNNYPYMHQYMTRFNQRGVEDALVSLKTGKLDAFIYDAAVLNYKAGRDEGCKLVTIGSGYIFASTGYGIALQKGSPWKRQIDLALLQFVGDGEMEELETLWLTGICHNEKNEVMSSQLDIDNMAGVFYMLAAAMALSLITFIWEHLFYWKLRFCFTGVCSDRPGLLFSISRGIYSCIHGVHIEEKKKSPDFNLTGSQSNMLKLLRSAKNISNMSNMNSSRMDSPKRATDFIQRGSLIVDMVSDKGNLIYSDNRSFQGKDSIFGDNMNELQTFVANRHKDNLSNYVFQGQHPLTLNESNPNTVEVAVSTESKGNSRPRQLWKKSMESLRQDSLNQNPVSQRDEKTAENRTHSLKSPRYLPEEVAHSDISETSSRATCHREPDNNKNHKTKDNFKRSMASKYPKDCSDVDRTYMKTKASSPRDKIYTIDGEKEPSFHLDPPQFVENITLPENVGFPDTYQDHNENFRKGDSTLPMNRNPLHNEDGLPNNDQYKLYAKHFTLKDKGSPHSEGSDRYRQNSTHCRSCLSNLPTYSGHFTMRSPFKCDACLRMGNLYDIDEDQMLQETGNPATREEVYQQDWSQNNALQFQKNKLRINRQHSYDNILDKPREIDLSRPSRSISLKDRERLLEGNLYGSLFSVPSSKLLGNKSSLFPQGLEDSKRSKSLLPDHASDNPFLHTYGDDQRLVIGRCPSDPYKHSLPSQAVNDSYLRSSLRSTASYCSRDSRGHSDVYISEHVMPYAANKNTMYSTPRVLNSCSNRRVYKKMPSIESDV
Excerpt: (§1) Plasmids were obtained from the following individuals: Dr. Suzanne Zukin (Albert Einstein College of Medicine, Bronx, N.Y.), NR1100; Dr. Shigetada Nakanishi (Kyoto University Faculty of Medicine, Kyoto, Japan), NR2A; Dr. Stephen Heinemann (Salk Institute, San Diego, Calif.), GluR1 (flop), GluR3 (flop), and GluR6. Plasmids were linearized with BamH1 (NR1100), XhoI (NR2A, GluR1, GluR3) or XbaI (GluR6) prior to in vitro transcription with T3 (GluR1, GluR3, GluR6) or T7 (NR1100, NR2A) RNA polymerase using the Message Machine kit (Ambion, Austin, Tex.). […] RNA solutions (50-70 nl) were injected into oocytes for delivery of NR1100 (5 ng), NR1100:NR2A (1:10 ng), GluR1 (5 ng). GluR3 (5 ng), or GluR6 (20 ng). Oocytes were incubated in ND96 at 18-20° C. for 3-7 days prior to electrophysiological recording.
(§2) Steroid solutions were prepared as 70-100 mM frozen stocks in dimethyl sulfoxide (DMSO). The final DMSO concentration of all recording solutions was between 0.1% to 0.5% and was constant within an experiment.
(§3) Perfusion control and data acquisition were carried out using an automated oocyte electrophysiology workstation that was developed for the rapid collection of concentration-response data and real-time waveform analysis (Yaghoubi et al., Soc. Neurosci. Abstr. 20: 1109 (1995)). This system is implemented on a Macintosh IIci computer (Apple Computer, Cupertino, Calif.) equipped with MacA-DIOS II data acquisition and control hardware (GW Instruments, Somerville, Mass.). Drug application is controlled by the computer through a series of valves, using custom-written software based on the SuperScope II development environment, improving the efficiency and reproducibility of data collection. Experiments were carried out using an Axoclamp-2A voltage clamp amplifier (Axon Instruments, Foster City, Calif.) in two-electrode voltage clamp mode. Intracellular microelectrodes (1-3 MΩ) were filled with 3 M KCl. […] Membrane potential was clamped at −60 to −70 mV and stepped to −100 mV at the start of data acquisition unless otherwise stated. […] Current and voltage recordings were digitized at 100 Hz for analysis. GluR6 injected oocytes were treated for 10 min with 10 μg/ml concanavalin A to prevent fast desensitization.
(§4) Results are expressed as mean±S.E.M. Statistical comparisons were made using Student's t-test.

[2] = system: primary cultures of rat hippocampal neurons; assay: NMDA-induced neuronal death, trypan blue exclusion; assay type: cell-based; conditions: for inhibition of NMDA-induced neuronal death: acute 30 μM NMDA, steroid 100 μM (3α5β 50 μM); for exacerbation of NMDA-induced neuronal death: acute NMDA, steroid 100 μM (pregnenolone 20 μM)
Experimental: (§5) Principally neuronal cultures were prepared from hippocampal tissue of fetal Sprague-Dawley rats on day 18 of embryonic development, as previously described (Brewer et al., Brain Research 494: 65-74 (1989)). Briefly, hippocampal cells were dissociated by trituration in Ca^2+/Mg^2+-free Hank's basic salt solution (Gibco) supplemented with 4.2 mM bicarbonate, 1 mM sodium pyruvate, 20 mM HEPES, 3 mg/ml bovine serum albumin (BSA). Dissociated cells were then pelleted by centrifugation (500×g, 4 min). […] Cells were then plated onto poly-L-lysine-coated 24-well culture dishes (Nunclon) at a density of 15,000 cell/cm^2 and maintained in a humidified atmosphere containing 5% CO2/95% air at 37° C. After 48 h, nonneuronal cell division was inhibited by a 48 h exposure to 1 μM cytosine arabinoside. Cultures were subsequently maintained in serum-free DMEM plus defined components and were used for experiments 16 to 24 days after plating.
(§6) Steroids were dissolved in DMSO (0.5% final concentration), and all treatment media contained 0.5% DMSO. […] Following exposure, cultures were washed 3 times with medium from sister cultures (conditioned medium). After the final wash, steroid or vehicle was reintroduced. Drugs were added to cultures in 25 μl of conditioned medium to yield a final volume of 0.25 ml per well. Except where otherwise noted, final steroid concentration was 100 μM.
The ability of neurons to exclude trypan blue was used to quantitate cell viability (Dawson et al., Proc Natl Acad Sci USA 88: 6368-6371 (1991)). […] Cultures were then fixed with 4% paraformaldehyde in PBS for 30 min, at whichtime the fixative was replaced with PBS. The number of stained and unstained neurons were counted in 4 high-power fields per culture well, using an inverted phase contrast microscope under both bright field and phase contrast settings. Experiments were performed in triplicate, and all assessments were made with the experimenter blind to the treatment of each culture well. Percent cell death is expressed as follows: (number of trypan blue stained neurons)/(total number of neurons)×100%.
(§7) All data are expressed as mean±standard error of the mean. Statistical significance was evaluated using 95% confidence limits unless otherwise noted.

[3] = system: NMDA receptor (chick spinal cord neurons); conditions: Park-Chung et al. 1997, cited from earlier work
[4] = system: primary cultures of rat hippocampal neurons; assay: NMDA-induced increase in [Ca2+]i, Fluo-3 AM; assay type: cell-based; conditions: for reduction of NMDA-induced rise in [Ca2+]i: steroid 100 μM (3α5β 50 μM)
Experimental: as §5
DMSO was also added to controls to maintain a constant final DMSO concentration of […].
as §7

[5] = target: T1, NR1100+NR2A NMDA receptor; assay: NMDA-induced current (INMDA), Xenopus oocytes, Example 2; assay type: cell-based; conditions: 100 μM NMDA, 100 μM steroid
Experimental: NR1100 (NR1G) and NR2A clones were kindly provided by Dr. R. S. Zukin (Albert Einstein College of Medicine, New York, N.Y.) and Dr. S. Nakanishi (Faculty of Medicine, Kyoto University, Kyoto, Japan), respectively. mRNA was prepared through in vitro transcription of NR1100 and NR2A cDNAs using the mMessage mMachine kit (Ambion, Tex.). On the day following isolation, batches of 20-40 selected Xenopus oocytes were injected with 50 nl of prepared RNA solution (0.5 ng NR1100 and 5 ng of NR2A mRNA/oocyte). Oocytes were maintained in glass petri dishes containing Barth's solution (84 mM NaCl, 1 mM KCl, 2.4 mM NaHCO3, 0.82 mM MgSO4, 0.41 mM CaCl2, 0.33 mM Ca(NO3)2, 2.5 mM pyruvate, 0.1 mg/ml gentamycin, 7.5 mM Tris/HCl, pH 7.4) in an incubator at 18° C. Oocytes were used for electrophysiological experiments 4-10 days after injection.
Recordings from oocytes were obtained using the two electrode voltage-clamp mode with an Axoclamp-2A amplifier (Axon Instruments). The resistance of microelectrodes, pulled from glass capillaries and filled with 3 M KCl solution, was 2.5-3.5 M. Membrane potential was clamped at −70 mV. Drugs were applied by a gravity-driven external perfusion system. Drug application and data acquisition were carried out with custom-written software implemented in the SuperScopeII programming language (GW Instruments, Somerville, Mass.).
The degree of modulation of NMDA-induced Ca^2+ influx, cell death, and currents is expressed as the percent change, defined as (I′/I−1)×100%, where I and I′ are the NMDA-induced responses in the absence and presence of modulator, respectively. All data are expressed as mean±standard error of the mean. Statistical significance was evaluated using 95% confidence limits unless otherwise noted.

[6] = Precipitation in assay buffer / culture medium; assay type: physicochemical; conditions: 0.5% DMSO, above 50 μM (3α5β) and 20 μM (pregnenolone)
Experimental: Steroids were initially dissolved in 100% DMSO, then diluted into assay buffer at a final DMSO concentration of 0.5% and sonicated for 20 min. All other solutions also contained 0.5% DMSO. Except where otherwise noted, the final steroid concentration was 100 μM.
as §6

[7] = target: T2, NR1100 NMDA receptor (Rattus norvegicus, UniProt P35439); assay: NMDA-induced currents, Xenopus oocytes injected with NR1100 cRNA only, Example 1; assay type: cell-based
T2 construct: expressed in transfected cells; host or cells: Xenopus oocytes injected with NR1100 cRNA only
Excerpt: as §1, §2, §3, §4

[8] = target: T3, GluR1 AMPA receptor (Rattus norvegicus, UniProt P19490); assay: Kainate-induced currents, Xenopus oocytes injected with GluR1 cRNA; assay type: cell-based
T3 construct: expressed in transfected cells; host or cells: Xenopus oocytes injected with GluR1 cRNA
T3 sequence (P19490 19-907): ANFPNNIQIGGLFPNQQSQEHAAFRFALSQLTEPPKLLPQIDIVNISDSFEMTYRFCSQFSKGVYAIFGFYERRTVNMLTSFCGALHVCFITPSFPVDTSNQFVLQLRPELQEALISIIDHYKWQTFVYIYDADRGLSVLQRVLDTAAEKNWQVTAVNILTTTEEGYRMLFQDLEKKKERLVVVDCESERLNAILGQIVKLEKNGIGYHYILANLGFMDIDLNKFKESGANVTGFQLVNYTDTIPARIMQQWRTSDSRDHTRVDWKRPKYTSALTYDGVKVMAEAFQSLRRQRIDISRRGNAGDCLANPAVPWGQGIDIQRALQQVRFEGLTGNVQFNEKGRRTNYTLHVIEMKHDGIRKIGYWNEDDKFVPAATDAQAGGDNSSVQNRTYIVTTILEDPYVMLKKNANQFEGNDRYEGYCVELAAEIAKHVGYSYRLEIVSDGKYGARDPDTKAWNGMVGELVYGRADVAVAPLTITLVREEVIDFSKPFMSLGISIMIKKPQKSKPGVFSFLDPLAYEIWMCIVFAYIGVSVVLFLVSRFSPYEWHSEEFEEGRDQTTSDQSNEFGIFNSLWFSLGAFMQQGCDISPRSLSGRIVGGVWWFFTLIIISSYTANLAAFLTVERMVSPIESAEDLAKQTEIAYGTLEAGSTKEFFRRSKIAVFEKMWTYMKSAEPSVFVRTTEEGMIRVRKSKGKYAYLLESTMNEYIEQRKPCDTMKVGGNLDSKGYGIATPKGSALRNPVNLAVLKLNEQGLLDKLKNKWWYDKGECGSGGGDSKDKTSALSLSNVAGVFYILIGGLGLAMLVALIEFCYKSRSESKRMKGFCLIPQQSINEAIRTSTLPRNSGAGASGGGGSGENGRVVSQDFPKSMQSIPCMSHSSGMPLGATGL
Excerpt: as §1, §2, §3, §4

[9] = target: T4, GluR3 AMPA receptor (Rattus norvegicus, UniProt P19492); assay: Kainate-induced currents, Xenopus oocytes injected with GluR3 cRNA; assay type: cell-based
T4 construct: expressed in transfected cells; host or cells: Xenopus oocytes injected with GluR3 cRNA
T4 sequence (P19492 23-888): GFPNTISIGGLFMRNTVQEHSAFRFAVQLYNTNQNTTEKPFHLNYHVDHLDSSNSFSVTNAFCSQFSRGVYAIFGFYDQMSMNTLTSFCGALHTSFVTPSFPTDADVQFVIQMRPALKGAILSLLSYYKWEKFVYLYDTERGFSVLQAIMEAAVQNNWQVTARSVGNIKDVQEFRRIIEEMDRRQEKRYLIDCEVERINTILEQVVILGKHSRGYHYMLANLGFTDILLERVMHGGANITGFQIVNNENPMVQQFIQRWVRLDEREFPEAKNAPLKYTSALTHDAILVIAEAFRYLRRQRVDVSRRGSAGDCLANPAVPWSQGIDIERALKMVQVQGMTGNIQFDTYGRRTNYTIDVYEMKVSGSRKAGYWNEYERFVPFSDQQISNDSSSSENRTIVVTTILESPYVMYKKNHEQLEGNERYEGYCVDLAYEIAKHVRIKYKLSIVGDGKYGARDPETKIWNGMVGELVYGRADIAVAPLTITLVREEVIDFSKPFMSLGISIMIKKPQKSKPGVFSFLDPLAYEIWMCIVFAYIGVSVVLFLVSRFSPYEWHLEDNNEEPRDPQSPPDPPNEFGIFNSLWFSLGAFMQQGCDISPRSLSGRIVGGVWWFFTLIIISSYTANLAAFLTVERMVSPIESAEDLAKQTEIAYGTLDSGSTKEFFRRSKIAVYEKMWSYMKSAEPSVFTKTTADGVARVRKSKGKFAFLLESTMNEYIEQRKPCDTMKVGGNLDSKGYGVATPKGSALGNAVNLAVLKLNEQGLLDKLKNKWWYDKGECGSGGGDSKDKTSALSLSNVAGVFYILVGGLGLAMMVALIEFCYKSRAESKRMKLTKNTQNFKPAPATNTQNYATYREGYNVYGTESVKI
Excerpt: as §1, §2, §3, §4

[10] = target: T5, GluR6 kainate receptor (Rattus norvegicus, UniProt P42260); assay: Kainate-induced currents, Xenopus oocytes injected with GluR6 cRNA; assay type: cell-based
T5 construct: expressed in transfected cells; host or cells: Xenopus oocytes injected with GluR6 cRNA (concanavalin A treated)
T5 sequence (P42260 32-908): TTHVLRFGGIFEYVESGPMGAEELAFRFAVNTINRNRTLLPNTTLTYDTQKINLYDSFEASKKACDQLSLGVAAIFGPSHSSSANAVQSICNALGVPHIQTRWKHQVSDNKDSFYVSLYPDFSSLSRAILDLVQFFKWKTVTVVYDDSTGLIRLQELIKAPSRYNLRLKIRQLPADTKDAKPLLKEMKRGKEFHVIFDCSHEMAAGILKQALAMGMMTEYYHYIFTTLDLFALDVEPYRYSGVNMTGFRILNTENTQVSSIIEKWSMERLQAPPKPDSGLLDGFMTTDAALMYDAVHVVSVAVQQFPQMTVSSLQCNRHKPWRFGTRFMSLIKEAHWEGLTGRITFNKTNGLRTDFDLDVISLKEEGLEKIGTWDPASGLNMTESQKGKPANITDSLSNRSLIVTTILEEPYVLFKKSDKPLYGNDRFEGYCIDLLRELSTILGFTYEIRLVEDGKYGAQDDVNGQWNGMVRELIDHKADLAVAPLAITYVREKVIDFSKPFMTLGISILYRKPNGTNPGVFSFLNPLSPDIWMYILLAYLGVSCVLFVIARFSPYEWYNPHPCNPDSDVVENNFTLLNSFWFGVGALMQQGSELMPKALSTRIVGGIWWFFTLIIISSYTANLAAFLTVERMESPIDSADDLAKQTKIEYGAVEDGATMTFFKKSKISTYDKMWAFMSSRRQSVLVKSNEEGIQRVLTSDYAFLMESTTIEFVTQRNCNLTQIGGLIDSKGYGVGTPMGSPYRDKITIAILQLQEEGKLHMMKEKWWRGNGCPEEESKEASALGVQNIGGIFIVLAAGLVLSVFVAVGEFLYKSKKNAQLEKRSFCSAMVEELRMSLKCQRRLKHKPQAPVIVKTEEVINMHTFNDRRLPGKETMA
Excerpt: as §1, §2, §3, §4

Row | Molecule | inhibition of NMDA-induced neuronal death [2] | reduction of NMDA-induced rise in [Ca2+]i ([4]; 5 μM NMDA) | inhibition of INMDA [5] | exacerbation of NMDA-induced neuronal death [2] | potentiation of INMDA [5] | also measured
1 | CC(=O)[C@H]1CC[C@H]2[C@@H]3CC[C@H]4C[C@@H](OS(=O)(=O)O)CC[C@]4(C)[C@H]3CC[C@]12C [3α5αS, 3α-hydroxy-5α-pregnan-20-one sulfate] | 47±12% |  |  |  |  | effect on NMDA induced current [1]: 8±8%; modulation of NMDA-induced current ([3]; sulfate): weaker inhibitor
2 | CC(=O)[C@H]1CC[C@H]2[C@@H]3CC[C@@H]4C[C@H](O)CC[C@]4(C)[C@H]3CC[C@]12C [3α5β, pregnanolone] | do not exhibit significant neuroprotective activity | no significant effect | inactive |  |  | precipitation at higher concentrations [6]: higher concentrations tended to precipitate
3 | CC(=O)[C@H]1CC[C@H]2[C@@H]3CC[C@@H]4C[C@H](OC(=O)CCCC(=O)O)CC[C@]4(C)[C@H]3CC[C@]12C [3α5βHG, pregnanolone hemiglutarate] | 38±6% | approximately 40% | about equally effective in inhibiting INMDA |  |  | 
4 | CC(=O)[C@H]1CC[C@H]2[C@@H]3CC[C@@H]4C[C@H](OC(=O)C(=O)O)CC[C@]4(C)[C@H]3CC[C@]12C [3α5βHO, pregnanolone hemioxylate] | 35±6% | approximately 40% | about equally effective in inhibiting INMDA |  |  | 
5 | CC(=O)[C@H]1CC[C@H]2[C@@H]3CC[C@H]4C[C@@H](OS(=O)(=O)O)CC[C@]4(C)[C@H]3CC[C@]12C [3β5αS, 3β-hydroxy-5α-pregnan-20-one sulfate] |  |  |  | 40±7% |  | effect on NMDA induced current [1]: 33±13%; modulation of NMDA-induced current ([3]; sulfate): weakly potentiates
6 | CC(=O)[C@H]1CC[C@H]2[C@@H]3CC[C@@H]4C[C@@H](OS(=O)(=O)O)CC[C@]4(C)[C@H]3CC[C@]12C [3β5βS, epipregnanolone sulfate] | 86±3% |  |  |  |  | pEC50 [1]: 4.10; pEC50 [7]: 3.84; modulation of NMDA-induced current [3]: strong inhibitors
7 | CC(=O)[C@H]1CC[C@H]2[C@@H]3CC=C4C[C@@H](OC=O)CC[C@]4(C)[C@H]3CC[C@]12C [PF, pregnenolone formate] |  |  |  | ineffective | little activity | potentiation of NMDA-induced Ca2+ accumulation ([4]; 5 μM NMDA, steroid 100 μM (pregnenolone 20 μM)): without effect
8 | CC(=O)[C@H]1CC[C@H]2[C@@H]3CC=C4C[C@@H](OC(=O)CCCC(=O)O)CC[C@]4(C)[C@H]3CC[C@]12C [PHG, pregnenolone hemiglutarate] |  |  |  | 54±9% | more than doubling the response | potentiation of NMDA-induced Ca2+ accumulation [4]: 146±29%
9 | CC(=O)[C@H]1CC[C@H]2[C@@H]3CC=C4C[C@@H](OC(=O)C(=O)O)CC[C@]4(C)[C@H]3CC[C@]12C [PHO, pregnenolone hemioxylate] |  |  |  | 48±12% | little activity; also recorded: does not enhance the NMDA-induced current | potentiation of NMDA-induced Ca2+ accumulation [4]: 62±17%
10 | CC(=O)C1CCC2C3CC=C4C[C@@H](OC(=O)CCC(=O)O)CC[C@]4(C)C3CC[C@]12C (some centres unmarked) [PHS, pregnenolone hemisuccinate] |  |  |  |  | more than doubling the response | Percentage change in kainate response [8]: −71 ± 1(4) %; Percentage change in kainate response [9]: −72 ± 3(3) %; Percentage change in kainate response [10]: −15 ± 2(3) %; inhibition of the response to kainate [10]: 15%; Percentage change in NMDA response ([1]; NR1100 + NR2A, steroid 100 μM, 100 μM NMDA, −100 mV): +118 ± 16(16) %
11 | pregnanolone formate [3α5βF] | do not exhibit significant neuroprotective activity | no significant effect | significantly inhibits INMDA |  |  | 
